Experimental data: patent US7531555B2, “Compositions and methods for selective inhibition of nicotine acetylcholine receptors” (University of Florida Research Foundation, Inc., priority 2003, dated 2009)
Read-outs that look alike come from different tables or passages of the source.

Key:
[1] = tested on: mice; assay: Body temperature, nicotine-induced hypothermia; format: in vivo; settings: for Body temperature Δ° C. (Mean ± SEM): s.c.
Method: Animals. Male ICR mice (20-25 g) obtained from Harlan Laboratories (Indianapolis, Ind.) were used throughout the study. Animals were housed in groups of six and had free access to food and water. Adult, male Long-Evans rats (350-460 g), obtained from Harlan (Dublin, Va.), were individually housed in a temperature-controlled (20-22° C.) environment with a 12-hour light-dark cycle (lights on at 7 a.m.). Rats were maintained within the indicated weight range by restricted post-session feeding and had ad libitum water in their home cages. Rats were drug-naive at the beginning of the study. Animals were housed in an AALAC approved facility and the study was approved by the Institutional Animal Care and Use Committee of Virginia Commonwealth University. Body temperature. Rectal temperature was determined by a thermistor probe (inserted 24 mm) and digital thermometer (Yellow Springs Instrument Co., Yellow Springs, Ohio). […] The difference in rectal temperature before and after treatment was calculated for each mouse. The ambient temperature of the laboratory varied from 21-24° C. from day to day. […] Psychopharmacology (Berl), 1995, 117:67-73). Eight to twelve mice were tested in each treatment group and each animal was tested only once. Statistical analysis. Statistical analysis of all analgesic and in vivo studies was performed using either t-test or analysis of variance (ANOVA) with Tukey's test post hoc test when appropriate.

[2] = biological target: T1, Rat α3β4 (Rattus norvegicus, UniProt P04757+P12392); assay: Voltage clamp of Xenopus oocytes expressing α3β4 nAChR; format: cell-based
T1 construct: expressed in transfected cells; host or cells: Xenopus laevis oocytes injected with subunit cRNAs; clones from Dr. Jim Boulter (UCLA)
T1 sequence (P04757 26-499): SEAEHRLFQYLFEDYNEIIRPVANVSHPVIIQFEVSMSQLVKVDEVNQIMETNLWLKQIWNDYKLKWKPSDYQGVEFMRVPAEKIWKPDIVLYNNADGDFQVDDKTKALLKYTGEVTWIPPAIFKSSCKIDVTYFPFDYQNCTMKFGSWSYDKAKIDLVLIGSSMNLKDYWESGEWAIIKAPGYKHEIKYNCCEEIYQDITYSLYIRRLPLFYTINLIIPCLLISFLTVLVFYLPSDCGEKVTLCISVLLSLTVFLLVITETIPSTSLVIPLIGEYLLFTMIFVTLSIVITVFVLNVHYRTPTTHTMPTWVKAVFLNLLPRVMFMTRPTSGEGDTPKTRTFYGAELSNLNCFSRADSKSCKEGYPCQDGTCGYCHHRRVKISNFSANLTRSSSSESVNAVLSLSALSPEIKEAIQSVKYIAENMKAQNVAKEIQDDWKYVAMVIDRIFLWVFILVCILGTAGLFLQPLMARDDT
T1 sequence (P12392 21-495): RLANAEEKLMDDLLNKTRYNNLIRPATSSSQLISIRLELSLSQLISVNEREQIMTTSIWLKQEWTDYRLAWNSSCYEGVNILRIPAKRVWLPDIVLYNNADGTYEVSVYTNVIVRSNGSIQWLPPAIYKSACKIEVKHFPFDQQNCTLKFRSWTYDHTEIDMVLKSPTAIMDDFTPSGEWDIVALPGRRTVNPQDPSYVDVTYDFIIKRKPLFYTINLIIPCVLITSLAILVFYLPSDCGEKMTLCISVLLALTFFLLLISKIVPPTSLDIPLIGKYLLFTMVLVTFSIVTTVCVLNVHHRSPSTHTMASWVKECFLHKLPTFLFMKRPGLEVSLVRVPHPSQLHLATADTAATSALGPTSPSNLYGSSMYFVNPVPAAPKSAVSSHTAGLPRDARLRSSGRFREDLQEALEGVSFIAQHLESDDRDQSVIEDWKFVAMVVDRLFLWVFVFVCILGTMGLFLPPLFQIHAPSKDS
Method: (§1) Mature (>9 cm) female Xenopus laevis African frogs (NASCO, Ft. Atkinson, Wis.) were used as a source of oocytes. Prior to surgery, frogs were anesthetized by placing the animal in a 1.5 g/l solution of MS222 (3-aminobenzoic acid ethyl ester) for 30 minutes. Oocytes were removed from an incision made in the abdomen.
(§2) In order to remove the follicular cell layer, harvested oocytes were treated with 1.25 mg/ml collagenase from Worthington Biochemical Corporation (Freehold, N.J.) for 2 hours at room temperature in calcium-free Barth's solution (88 mM NaCl, 10 mM HEPES pH 7.6, 0.33 mM MgSO4, 0.1 mg/ml gentamicin sulfate). Subsequently, stage 5 oocytes were isolated and injected with 50 nl (5-20 ng) each of the appropriate subunit cRNAs. Recordings were made 2 to 15 days after injection.
(§3) Rat neuronal nAChR clones and mouse muscle nAChR cDNA clones were used. The wild-type clones were obtained from Dr. Jim Boulter (UCLA). The rat α6/3 (Dowell et al. J Neurosci, 2003, 23:8445-8452) clone was obtained from Michael McIntosh (University of Utah) and expressed in Xenopus oocytes in combinations with rat β2 and β3. […] The TM2 domain is understood to line the pore of the channel, with alpha helix structure. The 7′ position may actually be directed away from the actual pore lining, but this residue is highly conserved in all of the nAChR. It is valine in all of them except α9 (isoleucine) and β1, where it is alanine. The TM2 mutation in the α6/3 chimera was corrected by using QuickChange (Stratagene) according to their protocols. The corrected α6/3 chimera sequence was confirmed by restriction diagnostics and by automated fluorescent sequencing (University of Florida core facility). The corrected clone was expressed as above in Xenopus oocytes with β2 and β3 and compared to the wild-type α3 co-expressed with β2 and β3.
(§4) After linearization and purification of cloned cDNAs, RNA transcripts were prepared in vitro using the appropriate mMessage mMachine kit from Ambion Inc. (Austin, Tex.).
(§5) Electrophysiology. The majority of experiments were conducted using OpusXpress 6000A (Axon Instruments, Union City Calif.). OpusXpress is an integrated system that provides automated impalement and voltage clamp of up to eight oocytes in parallel. Cells were automatically perfused with bath solution, and agonist solutions were delivered from a 96-well plate. Both the voltage and current electrodes were filled with 3 M KCl. The agonist solutions were applied via disposable tips, which eliminated any possibility of cross-contamination. Drug applications alternated between ACh controls and experimental applications. Flow rates were set at 2 ml/min for experiments with α7 receptors and 4 ml/min for other subtypes. Cells were voltage-clamped at a holding potential of −60 mV. Data were collected at 50 Hz and filtered at 20 Hz. Agonist applications were 12 seconds in duration followed by 181-second washout periods for α7 receptors and 8 seconds with 241-second wash periods for other subtypes. For some experiments, particularly under conditions where residual inhibition precluded making repeated measurements from single cells (see below), manual oocyte recordings were made as previously described (Papke and Papke Br J of Pharmacol, 2002, 137:49-61). In brief, Warner Instruments (Hamden, Conn.) OC-725C oocyte amplifiers were used, and data were acquired with a minidigi or digidata 1200A with pClamp9 software (Axon Instruments). Sampling rates were between 10 and 20 Hz and the data were filtered at 6 Hz. Cells were voltage clamped at a holding potential of −50 mV.
Experimental protocols and data analysis. Each oocyte received two initial control applications of ACh, an experimental drug application (or co-application of ACh and TMPH), and then follow-up control application(s) of ACh. The control ACh concentrations for α1β1γδ, α3β4, α4β2, α3β2, α3β2α5, α3β2β3, α6/3β2β3 α6β4β3 and α7, receptors were 30 μM, 100 μM, 10 μM, 30 μM, 1 μM 100 μM 100 μM 100 μM and 300 μM, respectively. […]

[3] = biological target: Rat α3β4β3 (Rattus norvegicus, UniProt P04757+P12391+P12392); assay: Voltage clamp of Xenopus oocytes expressing α3β4β3 nAChR; format: cell-based; design: expressed in transfected cells; host or cells: Xenopus laevis oocytes injected with subunit cRNAs; clones from Dr. Jim Boulter (UCLA)
Rat α3β4β3, sequence (P04757 26-499): as the sequence (P04757 26-499) above
Rat α3β4β3, sequence (P12392 21-495): as the sequence (P12392 21-495) above
Rat α3β4β3, sequence (P12391 31-464): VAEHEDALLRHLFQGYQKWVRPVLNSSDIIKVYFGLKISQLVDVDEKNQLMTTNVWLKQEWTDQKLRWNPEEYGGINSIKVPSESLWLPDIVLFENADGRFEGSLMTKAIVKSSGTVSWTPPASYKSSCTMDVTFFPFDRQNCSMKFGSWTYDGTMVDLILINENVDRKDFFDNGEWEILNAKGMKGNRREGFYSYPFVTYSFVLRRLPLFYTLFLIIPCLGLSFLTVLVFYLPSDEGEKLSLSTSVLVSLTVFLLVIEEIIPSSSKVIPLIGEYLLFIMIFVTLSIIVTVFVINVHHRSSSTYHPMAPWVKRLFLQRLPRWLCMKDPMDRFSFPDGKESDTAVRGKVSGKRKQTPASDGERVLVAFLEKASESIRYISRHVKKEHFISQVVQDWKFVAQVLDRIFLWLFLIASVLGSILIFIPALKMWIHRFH
Method: as §1, §2, §3, §4
as §5, with “Cells were voltage clamped at a holding potential of −50 mV.” left out

[4] = decrease in net charge, 100 μM ACh co-applied with TMPH, read-out: IC50 (area)
[5] = decrease in peak current amplitude, 100 μM ACh co-applied with TMPH, read-out: IC50 (peak)

## CCCCCCC(=O)OC1CC(C)(C)NC(C)(C)C1 [TMPH, 2,2,6,6-tetramethylpiperidin-4-yl heptanoate]
[1]; TMPH 20 mg/kg, nicotine 2.5 mg/kg
  effect on nicotine-induced hypothermia: not blocked
[1]; TMPH (20 mg/kg)/Nicotine (1.5 mg/kg)
  Body temperature Δ° C. (Mean ± SEM): −5.2 ± 0.4 °C
[1]; TMPH (20 mg/kg)/Saline
  Body temperature Δ° C. (Mean ± SEM): −1.0 ± 0.2 °C
[1]; TMPH @ 20 mg/kg
  blockade of nicotine-induced hypothermia: 0% blockade @ 20
[1]; s.c. injection, at the indicated doses and times
  effect of TMPH by itself on body temperature: did not have a significant effect
[2]; after a 5-minute wash
  reversibility of inhibition: persisted after the wash
[2]; [4]
  IC50: 75 ± 23 nM
[2]; [5]
  IC50: 200 ± 50 nM
[2]; inhibition still present after 5-minute wash, read-out: IC50 (recovery)
  IC50: 85 ± 32 nM
[2]; ratio
  IC50 net charge/IC50 peak: 0.36
  IC50 recovery/IC50 net charge: 1.1
[3]; [4]
  IC50: 1400 ± 200 nM
[3]; [5]
  IC50: 1900 ± 200 nM
[3]; inhibition still present after 5-minute wash, read-out: IC50 (recovery), 2 site model, site with 85% of the fit
  IC50: 30000 nM
[3]; ratio
  IC50 net charge/IC50 peak: 0.74
[3]; ratio, recovery site of IC50 30 μM
  IC50 recovery/IC50 net charge, 2-site model, second value: 21
